In this experiment the test system is pancreatic cancer cells KP4. The experiment in a line: NET-promoted tumor sphere formation, pancreatic cancer. Format: cell-based. To be noted: neutrophil medium, CM with or without brensocatib, FIG. 11O. The procedure:
To test the therapeutic effects of brensocatib in different cancer types in vitro, the ability of brensocatib to inhibit NET-promoted tumor sphere formation is investigated. The neutrophils are cultured with conditioned medium from tumor cells of colon cancer, liver cancer, lung cancer, gastric cancer and pancreatic cancer with or without brensocatib treatment to activate NETosis, and then the neutrophil medium was used in tumor sphere formation of these cancer cells to analyze the effect of neutrophil medium to facilitate tumor cell growth. The amount of tumorsphere in each sample is then determined by imaging.

Consider `Cn1c(=O)oc2ccc(-c3ccc(C[C@@H](C#N)NC(=O)[C@@H]4CNCCCO4)cc3)cc21` [brensocatib, (2S)—N-{(1S)-1-cyano-2-[4-(3-methyl-2-oxo-2,3-dihydro-1,3-benzoxazol-5-yl)phenyl]ethyl}-1,4-oxazepane-2-carboxamide], for which the “NET-promoted tumor sphere formation (in vitro tumor growth)” value was “inhibit in vitro tumor growth”.

The record behind these values is US12697328B2, “Methods for treating metastasis with cathepsin C inhibitors” (Shanghai Institute of Nutrition and Health, Chinese Academy …, priority 2020, dated 2026).
